What was measured:
Gram-positive bacteria = assay: minimum inhibitory concentration (MIC) determination; format: cell-based; settings: wide range of Gram-positive bacteria including enterococci and resistant clinical isolates; MIC values are in Table II (image)
[1] = test system: Staphylococcus aureus E 710 (Methicillin resistant); assay: in vivo antibacterial protection study in experimentally infected mice; settings: laboratory mice experimentally infected with Staphylococcus aureus E 710 (Methicillin resistant)
Excerpt: "In vivo" antibacterial protection studies

[2] = acute toxicity, subcutaneous injection; format: in vivo; settings: 1000 mg/kg and 2000 mg/kg, injected subcutaneously, Swiss mice
Excerpt: The acute toxicity of the compound in laboratory animals has been evaluated.

[3] = acute toxicity, intravenous injection, rats; format: in vivo; settings: Wistar rats
[4] = acute toxicity, intravenous injection, mice; format: in vivo; settings: Swiss white mice
[5] = i.v., end of the 14 day follow-up period

Row | Compound | activity against Gram-positive bacteria (Gram-positive bacteria) | activity in the in vivo system [1] | acute toxicity [2] | finding at the site of injection [2] | macroscopic examination on dissection [3, 5] | LD₅₀ ([3]; intravenous injection (i.v.)) | macroscopic examination on dissection [4, 5] | LD₅₀ ([4]; intravenous injection (i.v.), 20160 min)
1 | Decaplanin | displays activity | good activity | no acute toxicity was observed | no abnormalities were observed | no morphological changes | greater than 2,500 mg/kg | no morphological changes | greater than 3000 mg/kg
2 | CN[C@H](CC(C)C)C(=O)N[C@H]1C(=O)N[C@@H](CC(N)=O)C(=O)N[C@H]2C(=O)N[C@H]3C(=O)N[C@H](C(=O)N[C@H](C(=O)O)c4cc(O)cc(O)c4-c4cc3ccc4O)[C@H](O)c3ccc(c(Cl)c3)Oc3cc2cc(c3O[C@@H]2O[C@H](CO)[C@@H](O)[C@H](O)[C@H]2O[C@H]2C[C@](C)(N)[C@H](O)[C@H](C)O2)Oc2ccc(cc2Cl)[C@H]1O [vancomycin, reference compound] |  |  |  | tissue necrosis was seen at the site of injection |  |  |  | 

From patent EP0356894A1, “A novel glycopeptide antibiotic Decaplanin, a process for its production and its use as medicament” (priority 1988, dated 1990)
